From ChEMBL document CHEMBL3045220, “Design, characterization, computational studies, and pharmacological evaluation of substituted-N-[(1E) substituted-phenylmethylidene]benzohydrazide analogs” (Med Chem Res, 2013) come the findings set out here.

One test concerns Aspergillus niger. The experiment in a line: Antifungal activity against Aspergillus niger by agar well diffusion method. To be noted: Aspergillus niger. The format is functional.
In a further test the test system is Candida albicans. As to the kind of experiment: Antifungal activity against Candida albicans by agar well diffusion method. The format is functional.
The next test relates to Staphylococcus aureus. The experiment in a line: Antibacterial activity against Staphylococcus aureus by agar well diffusion method. It is filed as functional.
Test [1] deals with Staphylococcus epidermidis. The experiment in a line: Antibacterial activity against Staphylococcus epidermidis by agar well diffusion method. The format is functional.
The test system of a further test is Pseudomonas aeruginosa. The experiment in a line: Antibacterial activity against Pseudomonas aeruginosa by agar well diffusion method. The format is functional.
The test system of another test is Escherichia coli. As to the kind of experiment: Antibacterial activity against Escherichia coli by agar well diffusion method. The format is functional.
Test [2] is described as follows: Antioxidant activity assessed as Mo(6) reduction activity after 60 min by UV-Vis spectrophotometric analysis. It is filed as functional.
Test [3] in a line: Antioxidant activity assessed as H2O2 scavenging activity after 10 min by UV-Vis spectrophotometric analysis. It is filed as functional.
Test [4] in a line: Anti-inflammatory activity assessed as inhibition of albumin denaturation incubated for 15 min at 27 degC followed by incubation at 60 degC for 10 min by UV-Vis spectrophotometric analysis.

≈ marks a conversion by molar mass, not a printed value.

Regarding `Cc1ccc(/C=N/NC(=O)c2ccc(Cl)cc2)cc1`, the MIC was found to be 10 µg/mL (≈ 36.7 µM) in the test with Aspergillus niger; 20 µg/mL (≈ 73.3 µM) against Candida albicans (Candida albicans); 30 µg/mL (≈ 110 µM) with Staphylococcus aureus (Staphylococcus aureus); 200 µg/mL (≈ 733 µM) in [1] (Staphylococcus epidermidis); 6.5 µg/mL (≈ 23.8 µM) against Pseudomonas aeruginosa (Pseudomonas aeruginosa); 184 µg/mL (≈ 675 µM) against Escherichia coli (Escherichia coli). For the same compound, the “-logMIC” value with Candida albicans is listed as 1.301; in the test with Staphylococcus aureus, 1.477; in test [1], 2.3; with Pseudomonas aeruginosa, 0.81; in the test on Escherichia coli, 2.264. The IC50 in test [2] is 42 µg/mL (≈ 154 µM); in [3], 4.3 µg/mL (≈ 15.8 µM); in [4], 86 µg/mL (≈ 315 µM).
